Laboratory results taken from patent publication US20220125784A1, “METHODS AND COMPOUNDS FOR INHIBITION OF INACTIVATION OF VOLTAGE-GATED SODIUM CHANNELS” (SIMON FRASER UNIVERSITY, priority 2019, published 2022).
Entries after “also recorded” stand apart in the source; their conditions may differ.

Tests used:
WT Nav1.5-α subunits [1] = target: T1, WT Nav1.5-α subunits (Homo sapiens, UniProt Q14524); test: Whole-cell patch clamp, single voltage-pulse protocol (peak INa, conductance, fast inactivation) in transiently transfected HEK293 cells; type: cell-based; conditions: for Peak INa −20 mV: normalized peak INa, 37° C.; for Peak INa Slope: Hill curve slope; for IC50: Hill curve; for IC50 / effect on peak INa: single voltage-pulse protocol; for effect on fast inactivation kinetics: open-state voltages between −30 and +10 mV
T1 construct: expressed in transfected cells; host or cells: HEK293 (transient transfection)
Experimental: (§1) In one set of studies, we used a whole-cell patch clamp technique with single voltage-pulse protocols (FIGS. 3A-B) to characterize compounds ZINC38767171, ZINC39699427, ZINC40014265, ZINC64470729, ZINC64470737 and ZINC64470745. Whole-cell patch clamp was performed in extracellular solution containing (in mM): 140 NaCl, 4 KCl, 2 CaCl2, 1 MgCl2, and 10 HEPES (pH 7.4 adjusted with CsOH). The intracellular pipettes were dipped in dental wax and thermally polished to attain a resistance of 1.0-1.5 MΩ. The intracellular solutions contained (in mM): 130 CsF, 10 NaCl, 10 HEPES, and 10 EGTA titrated to pH 7.4. The six compounds, ZINC38767171, ZINC39699427, ZINC40014265, ZINC64470729, ZINC64470737 and ZINC64470745, chosen for electrophysiology characterization, ordered from MolPort (Easy compound ordering services), were diluted to 10 μM, 50 μM, and 100 μM in extracellular solution for biophysical assessment of channel gating.
(§2) The six compounds were screened against wild type (WT) Nav1.5-α subunits at the optimal physiological temperature of 37° C. Human Embryonic Kidney (HEK293) cells were transfected with WT Nav1.5-α subunits (transient transfections). The α subunits were co-expressed with the β1 subunit and eGFP (enhanced green fluorescence protein) in a 2:1:2 ratio, respectively.
Conductance was measured by a protocol that depolarized the membrane from −100 mV to +80 mV in increments of +5 mV for 19 ms. Prior to the test pulse, channels were allowed to recover from fast inactivation at −130 mV for 197 ms. The tested compounds had no effect on the conductance midpoint (FIGS. 6A-F).
At voltages greater than −50 mV, the fast inactivation T values were calculated from the mono-exponential fit to the decay of sodium current.

WT Nav1.5-α subunits [2] = target: T1, WT Nav1.5-α subunits; test: Whole-cell patch clamp, use-dependence (slow inactivation) protocol at 6 Hz in transiently transfected HEK293 cells; type: cell-based; conditions: for UDI Block Slope: Hill curve slope; for IC50: Hill curve, use-dependence at 6 Hz, read-out: UDI Block IC50
Experimental: as §1, §2
Slow inactivation (SI) was indirectly determined by measuring use-dependence, which is a physiologically-relevant protocol. The protocol includes a series of 500 110 ms depolarizing pulses to 0 mV followed by a 55 ms-90 mV recovery pulse at a frequency 6 Hz. With repetitive depolarizations, Nav1.5 channels accumulate into slow inactivation.

T1 sequence (Q14524 whole entry): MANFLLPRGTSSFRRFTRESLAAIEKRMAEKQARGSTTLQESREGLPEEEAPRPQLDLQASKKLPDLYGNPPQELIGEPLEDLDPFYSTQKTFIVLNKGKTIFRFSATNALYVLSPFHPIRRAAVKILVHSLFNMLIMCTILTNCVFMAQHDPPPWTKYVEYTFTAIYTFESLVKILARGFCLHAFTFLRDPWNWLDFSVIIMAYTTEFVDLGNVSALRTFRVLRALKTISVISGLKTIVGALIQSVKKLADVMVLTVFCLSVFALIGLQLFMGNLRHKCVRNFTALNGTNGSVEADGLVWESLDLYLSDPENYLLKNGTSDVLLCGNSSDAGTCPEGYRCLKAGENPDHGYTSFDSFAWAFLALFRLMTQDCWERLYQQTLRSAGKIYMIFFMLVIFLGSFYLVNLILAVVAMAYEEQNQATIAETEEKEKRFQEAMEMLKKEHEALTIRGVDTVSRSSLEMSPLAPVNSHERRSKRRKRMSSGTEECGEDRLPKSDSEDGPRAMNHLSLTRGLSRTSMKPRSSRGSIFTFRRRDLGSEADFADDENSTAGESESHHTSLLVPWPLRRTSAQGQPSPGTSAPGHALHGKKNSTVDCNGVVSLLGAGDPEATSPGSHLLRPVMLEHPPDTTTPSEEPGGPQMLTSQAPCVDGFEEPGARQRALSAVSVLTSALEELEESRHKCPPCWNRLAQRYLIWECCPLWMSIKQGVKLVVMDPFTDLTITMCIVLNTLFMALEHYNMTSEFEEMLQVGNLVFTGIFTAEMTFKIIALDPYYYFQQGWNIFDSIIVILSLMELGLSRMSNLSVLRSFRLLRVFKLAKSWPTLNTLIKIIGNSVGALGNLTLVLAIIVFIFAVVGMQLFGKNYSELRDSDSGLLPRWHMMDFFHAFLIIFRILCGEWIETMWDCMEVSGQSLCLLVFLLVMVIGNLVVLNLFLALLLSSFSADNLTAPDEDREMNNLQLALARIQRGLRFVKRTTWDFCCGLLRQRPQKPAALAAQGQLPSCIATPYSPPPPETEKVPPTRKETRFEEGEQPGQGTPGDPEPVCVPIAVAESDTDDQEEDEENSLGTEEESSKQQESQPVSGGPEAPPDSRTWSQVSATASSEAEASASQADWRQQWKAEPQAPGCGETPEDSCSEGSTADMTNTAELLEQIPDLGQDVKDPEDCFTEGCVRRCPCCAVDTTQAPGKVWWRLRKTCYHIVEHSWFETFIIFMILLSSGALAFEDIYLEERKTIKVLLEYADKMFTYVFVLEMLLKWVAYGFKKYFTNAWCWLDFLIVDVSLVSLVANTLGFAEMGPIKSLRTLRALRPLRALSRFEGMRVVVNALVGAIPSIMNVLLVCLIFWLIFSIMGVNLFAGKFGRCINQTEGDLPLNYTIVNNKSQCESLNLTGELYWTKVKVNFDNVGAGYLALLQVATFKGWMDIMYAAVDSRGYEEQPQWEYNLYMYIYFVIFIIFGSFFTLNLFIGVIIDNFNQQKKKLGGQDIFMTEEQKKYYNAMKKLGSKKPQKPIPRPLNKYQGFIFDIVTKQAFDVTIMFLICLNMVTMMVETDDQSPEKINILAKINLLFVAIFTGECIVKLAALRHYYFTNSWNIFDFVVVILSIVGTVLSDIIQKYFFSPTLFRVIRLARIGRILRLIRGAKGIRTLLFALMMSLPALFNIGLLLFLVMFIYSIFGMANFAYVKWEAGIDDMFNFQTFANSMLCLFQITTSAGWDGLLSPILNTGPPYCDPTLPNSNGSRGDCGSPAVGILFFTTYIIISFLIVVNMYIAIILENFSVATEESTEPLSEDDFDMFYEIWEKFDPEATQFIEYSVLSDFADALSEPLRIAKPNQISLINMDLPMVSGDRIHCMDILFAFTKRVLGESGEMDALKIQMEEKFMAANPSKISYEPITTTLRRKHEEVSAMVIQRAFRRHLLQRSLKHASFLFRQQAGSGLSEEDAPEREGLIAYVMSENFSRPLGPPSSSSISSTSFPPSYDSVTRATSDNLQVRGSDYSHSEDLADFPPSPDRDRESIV

## O=C1N=c2ccc(C(=O)NCc3ccco3)cc2=NC1=O [ZINC38767171, N-(2-furylmethyl)-2,3-dioxo-quinoxaline-6-carboxamide]
WT Nav1.5-α subunits [1]; 10 μM
  % Block −20 mV: −24.21%
  fast inactivation onset time constant FI +10 mV: 0.25 ± 0.05 ms
  fast inactivation onset time constant FI −10 mV: 0.39 ± 0.06 ms
  fast inactivation onset time constant FI −30 mV: 0.71 ± 0.12 ms
  fast inactivation onset time constant FI −50 mV: 1.70 ± 0.33 ms
  Peak INa −20 mV: −0.72 ± 0.06
WT Nav1.5-α subunits [1]; 50 μM
  % Block −20 mV: −37.89%
  fast inactivation onset time constant FI +10 mV: 0.34 ± 0.06 ms
  fast inactivation onset time constant FI −10 mV: 0.58 ± 0.08 ms
  fast inactivation onset time constant FI −30 mV: 0.94 ± 0.10 ms
  fast inactivation onset time constant FI −50 mV: 1.79 ± 0.15 ms
  Peak INa −20 mV: −0.59 ± 0.11
WT Nav1.5-α subunits [1]; 100 μM
  % Block −20 mV: −38.95%
  fast inactivation onset time constant FI +10 mV: 0.41 ± 0.11 ms
  fast inactivation onset time constant FI −10 mV: 0.60 ± 0.13 ms
  fast inactivation onset time constant FI −30 mV: 1.05 ± 0.21 ms
  fast inactivation onset time constant FI −50 mV: 1.92 ± 0.38 ms
  Peak INa −20 mV: −0.58 ± 0.10
WT Nav1.5-α subunits [1]
  Peak INa Slope: 1.697
  IC50: 7.61 µM
  effect on fast inactivation kinetics: significantly decelerated; also recorded: decelerate fast inactivation kinetics, but not significantly
WT Nav1.5-α subunits [2]
  UDI Block Slope: 3.161
  IC50: 0.251 µM

## C=CCNS(=O)(=O)c1ccc2c(c1)=NC(=O)N=2 [ZINC39699427, N-allyl-2-oxo-benzimidazole-5-sulfonamide]
WT Nav1.5-α subunits [1]; 10 μM
  % Block −20 mV: −34.00%
  fast inactivation onset time constant FI +10 mV: 0.21 ± 0.03 ms
  fast inactivation onset time constant FI −10 mV: 0.31 ± 0.04 ms
  fast inactivation onset time constant FI −30 mV: 0.54 ± 0.09 ms
  fast inactivation onset time constant FI −50 mV: 1.32 ± 0.24 ms
  Peak INa −20 mV: −0.66 ± 0.04
WT Nav1.5-α subunits [1]; 50 μM
  % Block −20 mV: −42.00%
  fast inactivation onset time constant FI +10 mV: 0.25 ± 0.03 ms
  fast inactivation onset time constant FI −10 mV: 0.35 ± 0.04 ms
  fast inactivation onset time constant FI −30 mV: 0.63 ± 0.08 ms
  fast inactivation onset time constant FI −50 mV: 1.46 ± 0.09 ms
  Peak INa −20 mV: −0.58 ± 0.06
WT Nav1.5-α subunits [1]; 100 μM
  % Block −20 mV: −47.00%
  fast inactivation onset time constant FI +10 mV: 0.26 ± 0.02 ms
  fast inactivation onset time constant FI −10 mV: 0.40 ± 0.03 ms
  fast inactivation onset time constant FI −30 mV: 0.72 ± 0.04 ms
  fast inactivation onset time constant FI −50 mV: 1.61 ± 0.18 ms
  Peak INa −20 mV: −0.53 ± 0.07
WT Nav1.5-α subunits [1]
  Peak INa Slope: 0.236
  IC50: 6.45 µM
  effect on peak INa: considerably blocked peak INa at low concentrations
WT Nav1.5-α subunits [2]; 6 Hz
  effect on use-dependence: significantly increases
WT Nav1.5-α subunits [2]
  UDI Block Slope: 4.556
  IC50: 0.196 µM

## COc1cccc(NS(=O)(=O)c2ccc3c(c2)=NC(=O)N=3)c1 [ZINC64470729, N-(3-methoxyphenyl)-2-oxo-benzimidazole-5-sulfonamide]
WT Nav1.5-α subunits [1]; 10 μM
  % Block −20 mV: −22.68%
  fast inactivation onset time constant FI +10 mV: 0.26 ± 0.04 ms
  fast inactivation onset time constant FI −10 mV: 0.40 ± 0.08 ms
  fast inactivation onset time constant FI −30 mV: 0.70 ± 0.14 ms
  fast inactivation onset time constant FI −50 mV: 1.67 ± 0.21 ms
  Peak INa −20 mV: −0.75 ± 0.05
WT Nav1.5-α subunits [1]; 50 μM
  % Block −20 mV: −25.77%
  fast inactivation onset time constant FI +10 mV: 0.26 ± 0.02 ms
  fast inactivation onset time constant FI −10 mV: 0.40 ± 0.03 ms
  fast inactivation onset time constant FI −30 mV: 0.75 ± 0.07 ms
  fast inactivation onset time constant FI −50 mV: 1.97 ± 0.29 ms
  Peak INa −20 mV: −0.72 ± 0.06
WT Nav1.5-α subunits [1]; 100 μM
  % Block −20 mV: −38.14%
  fast inactivation onset time constant FI +10 mV: 0.23 ± 0.03 ms
  fast inactivation onset time constant FI −10 mV: 0.39 ± 0.02 ms
  fast inactivation onset time constant FI −30 mV: 0.76 ± 0.09 ms
  fast inactivation onset time constant FI −50 mV: 1.71 ± 0.22 ms
  Peak INa −20 mV: −0.60 ± 0.26
WT Nav1.5-α subunits [1]
  Peak INa Slope: 0.389
  IC50: 34.6 µM
  effect on fast inactivation kinetics: significantly decelerated
WT Nav1.5-α subunits [2]
  UDI Block Slope: −0.194
  IC50: 40.7 µM

## CCc1ccccc1NS(=O)(=O)c1ccc2c(c1)=NC(=O)N=2 [ZINC64470737, N-(2-ethylphenyl)-2-oxo-benzimidazole-5-sulfonamide]
WT Nav1.5-α subunits [1]; 10 μM
  % Block −20 mV: −22.45%
  fast inactivation onset time constant FI +10 mV: 0.31 ± 0.06 ms
  fast inactivation onset time constant FI −10 mV: 0.41 ± 0.07 ms
  fast inactivation onset time constant FI −30 mV: 0.66 ± 0.09 ms
  fast inactivation onset time constant FI −50 mV: 1.37 ± 0.31 ms
  Peak INa −20 mV: −0.76 ± 0.13
WT Nav1.5-α subunits [1]; 50 μM
  % Block −20 mV: −40.82%
  fast inactivation onset time constant FI +10 mV: 0.39 ± 0.02 ms
  fast inactivation onset time constant FI −10 mV: 0.64 ± 0.08 ms
  fast inactivation onset time constant FI −30 mV: 1.02 ± 0.13 ms
  fast inactivation onset time constant FI −50 mV: 1.88 ± 0.27 ms
  Peak INa −20 mV: −0.58 ± 0.10
WT Nav1.5-α subunits [1]; 100 μM
  % Block −20 mV: −74.49%
  fast inactivation onset time constant FI +10 mV: 0.49 ± 0.00 ms
  fast inactivation onset time constant FI −10 mV: 0.66 ± 0.00 ms
  fast inactivation onset time constant FI −30 mV: 0.96 ± 0.00 ms
  fast inactivation onset time constant FI −50 mV: 1.82 ± 0.00 ms
  Peak INa −20 mV: −0.25 ± 0.00
WT Nav1.5-α subunits [1]
  Peak INa Slope: 14.37
  IC50: 9.86 µM
  effect on fast inactivation kinetics: significantly decelerated; also recorded: decelerates fast inactivation kinetics the most
WT Nav1.5-α subunits [2]
  UDI Block Slope: 0.710
  IC50: 95.1 µM

## Cc1cc(F)ccc1NS(=O)(=O)c1ccc2c(c1)=NC(=O)N=2 [ZINC64470745, N-(4-fluoro-2-methyl-phenyl)-2-oxo-benzimidazole-5-sulfonamide]
WT Nav1.5-α subunits [1]; 10 μM
  % Block −20 mV: −23.71%
  fast inactivation onset time constant FI +10 mV: 0.27 ± 0.03 ms
  fast inactivation onset time constant FI −10 mV: 0.37 ± 0.03 ms
  fast inactivation onset time constant FI −30 mV: 0.66 ± 0.04 ms
  fast inactivation onset time constant FI −50 mV: 2.12 ± 0.34 ms
  Peak INa −20 mV: −0.74 ± 0.06
WT Nav1.5-α subunits [1]; 50 μM
  % Block −20 mV: −12.37%
  fast inactivation onset time constant FI +10 mV: 0.25 ± 0.02 ms
  fast inactivation onset time constant FI −10 mV: 0.37 ± 0.03 ms
  fast inactivation onset time constant FI −30 mV: 0.63 ± 0.05 ms
  fast inactivation onset time constant FI −50 mV: 1.75 ± 0.34 ms
  Peak INa −20 mV: −0.85 ± 0.08
WT Nav1.5-α subunits [1]; 100 μM
  % Block −20 mV: −24.74%
  fast inactivation onset time constant FI +10 mV: 0.28 ± 0.04 ms
  fast inactivation onset time constant FI −10 mV: 0.45 ± 0.07 ms
  fast inactivation onset time constant FI −30 mV: 0.81 ± 0.12 ms
  fast inactivation onset time constant FI −50 mV: 1.79 ± 0.20 ms
  Peak INa −20 mV: −0.73 ± 0.04
WT Nav1.5-α subunits [1]
  Peak INa Slope: 16.06
  IC50: 0.928 µM
  effect on fast inactivation kinetics: significantly decelerated
  effect on peak INa: blocked peak INa the least; also recorded: does not reduce peak Na at concentrations above 10 μM
WT Nav1.5-α subunits [1]; attained at concentrations above 10 μM
  plateau of drug block on sodium current: −20%
WT Nav1.5-α subunits [2]
  UDI Block Slope: 0.289
  IC50: 901 µM
